Test results as given in patent US8574563B2 (Bristol-Myers Squibb Company, priority 2006, dated 2013).

Each compound was assayed on HCV 1b-377-neo replicon cells (assay: HCV replicon assay, HCV 1b-377-neo replicon cells (1b FRET)). Details: HCV 1b-377-neo replicon cells; HCV 1b genotype; read-out: EC50 range against HCV 1b (Table 2, Range).
Assay type: cell-based, Hepatitis C virus genotype 1b
Summary of the method: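 Compounds tested in HCV genotype 1b-377-neo replicon cells with a FRET read-out. Cells resistant to a reference NS5A inhibitor through a Y2065H NS5A mutation were run alongside wild-type cells.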
With CN(C)C(C(=O)N1CCCC1c1nc(-c2ccc(-c3ccc(-c4cnc(C5CCCN5C(=O)Cc5csc6ccccc56)[nH]4)cc3)cc2)c[nH]1)c1ccccc1 [Example 94-54, (1R)-2-((2S)-2-(5-(4′-(2-((2S)-1-(1-benzothiophen-3-ylacetyl)-2-pyrrolidinyl)-1H-imidazol-5-yl)-4-biphenylyl)-1H-imidazol-2-yl)-1-pyrrolidinyl)-N,N-dimethyl-2-oxo-1-phenylethanamine] the EC50 was 0.001 to 0.999 nM.

Same assay, conditions: Hepatitis C virus, HCV 1b-377-neo replicon cells; HCV 1b genotype; read-out: EC50 range against HCV 1b (Table 2, Range)
COC(=O)N[C@@H](C(=O)N1CCC[C@H]1c1ncc(-c2ccc(-c3ccc(-c4cnc([C@@H]5CCCN5C(=O)Cc5cccc(OC)c5)[nH]4)cc3)cc2)[nH]1)c1ccccc1 [Example 84-64, methyl ((1R)-2-((2S)-2-(5-(4′-(2-((2S)-1-((3-methoxyphenyl)acetyl)-2-pyrrolidinyl)-1H-imidazol-5-yl)-4-biphenylyl)-1H-imidazol-2-yl)-1-pyrrolidinyl)-2-oxo-1-phenylethyl)carbamate] was tested, and the EC50 was 0.001 to 0.999 nM. Compound COC(=O)N[C@@H](C(=O)N1CCC[C@H]1c1ncc(-c2ccc(-c3ccc(-c4cnc([C@@H]5CCCN5C(=O)C5CC5)[nH]4)cc3)cc2)[nH]1)c1ccccc1 [Example 33, methyl ((1R)-2-((2S)-2-(5-(4′-(2-((2S)-1-(cyclopropylcarbonyl)-2-pyrrolidinyl)-1H-imidazol-5-yl)-4-biphenylyl)-1H-imidazol-2-yl)-1-pyrrolidinyl)-2-oxo-1-phenylethyl)carbamate] has an EC50 of 0.001 to 0.999 nM. With CCN(CC)[C@@H](C(=O)N1CCC[C@H]1c1ncc(-c2ccc(-c3ccc(-c4cnc([C@@H]5CCCN5C(=O)[C@@H](c5ccccc5)N(C)C)[nH]4)cc3)cc2)[nH]1)c1ccccc1 [Example M52, (1R)-2-((2S)-2-(5-(4′-(2-((2S)-1-((2R)-2-(diethylamino)-2-phenylacetyl)-2-pyrrolidinyl)-1H-imidazol-5-yl)-4-biphenylyl)-1H-imidazol-2-yl)-1-pyrrolidinyl)-N,N-dimethyl-2-oxo-1-phenylethanamine] the EC50 was 1 to 99 nM. Work on COC(=O)N[C@@H](Cc1cncn1C)C(=O)N1CCC[C@H]1c1ncc(-c2ccc(-c3ccc(-c4cnc([C@@H]5CCCN5C(=O)[C@@H](NC(=O)OC)[C@@H](C)OC)[nH]4)cc3)cc2)[nH]1 [cj-47, methyl ((1S)-2-((2S)-2-(5-(4′-(2-((2S)-1-((2S,3R)-3-methoxy-2-((methoxycarbonyl)amino)butanoyl)-2-pyrrolidinyl)-1H-imidazol-5-yl)-4-biphenylyl)-1H-imidazol-2-yl)-1-pyrrolidinyl)-1-((1-methyl-1H-imidazol-5-yl)methyl)-2-oxoethyl)carbamate] yielded an EC50 of 1 to 99 nM. With COC(=O)N[C@@H](C(=O)N1CCC[C@H]1c1ncc(-c2ccc(-c3ccc(-c4cnc([C@@H]5CCCN5C(=O)[C@@H](Nc5ncccn5)C(C)C)[nH]4)cc3)cc2)[nH]1)c1ccccc1 [cj-11b, methyl ((1R)-2-oxo-1-phenyl-2-((2S)-2-(5-(4′-(2-((2S)-1-(N-2-pyrimidinyl-L-valyl)-2-pyrrolidinyl)-1H-imidazol-5-yl)-4-biphenylyl)-1H-imidazol-2-yl)-1-pyrrolidinyl)ethyl)carbamate] the EC50 was 0.001 to 0.999 nM. Compound CC(=O)N1CCC[C@H]1c1ncc(-c2ccc(-c3ccc(-c4cnc([C@@H]5CCCN5C(=O)[C@@H](c5ccccc5)N5CCCCC5)[nH]4)cc3)cc2)[nH]1 [Example 107-29, 1-1((1R)-2-((2S)-2-(5-(4′-(2-((2S)-1-acetyl-2-pyrrolidinyl)-1H-imidazol-5-yl)-4-biphenylyl)-1H-imidazol-2-yl)-1-pyrrolidinyl)-2-oxo-1-phenylethyl) piperidine] has an EC50 of 0.001 to 0.999 nM. CC(C)OC(=O)N[C@H](C(=O)N1CCC[C@H]1c1nc(-c2ccc(-c3ccc(-c4c[nH]c([C@@H]5CCCN5C(=O)[C@@H](NC(=O)OC(C)C)C(C)C)n4)cc3)cc2)c[nH]1)C(C)C [Example F26, isopropyl ((1S)-1-(((2S)-2-(4-(4′-(2-((2S)-1-((2S)-2-((isopropoxycarbonyl)amino)-3-methylbutanoyl)-2-pyrrolidinyl)-1H-imidazol-4-yl)-4-biphenylyl)-1H-imidazol-2-yl)-1-pyrrolidinyl)carbonyl)-2-methylpropyl)carbamate] showed an EC50 of 1 to 99 nM.
